Test results: patent publication US20240199552A1, “AMIDE COMPOUND AND USE THEREOF” (Metisa Biotechnology Co., Ltd, priority 2021, published 2024)
Like-named read-outs stand apart in the source and are kept apart here.

Experiments:
Diamondback moth = assay: Insecticidal activity against Diamondback moth, Airbrush spray on cabbage leaf discs; assay type: in vivo; settings: Plutella xylostella, foliar, 72 h; for mortality at 10 µg/mL: 10 mg/L, read-out: Mortality rate (%, 3 days after the administration) 10 mg/L; for mortality at 0.156 µg/mL: read-out: Mortality rate (%, 3 days after the administration) 0.156 mg/L; for mortality at 0.313 µg/mL: read-out: Mortality rate (%, 3 days after the administration) 0.313 mg/L
Protocol: (§1) After the compound to be determined was dissolved in a mixed solvent of acetone/methanol (1:1), it was diluted with water containing 0.1% (wt) Tween-80 to a desired concentration.
(§2) Mythimna separata, Diamondback moth, Chilo suppressalis, Spodoptera exigua, Myzus persicae, and Franklinella occidentalis were used as targets, and the activity was tested by an Airbrush spray method.
Determination method: cabbage leaves were formed into leaf discs having a diameter of 2 cm using a puncher, and the front and back of each leaf disc were sprayed under an Airbrush spray treatment pressure of 10 psi (approximate to 0.7 kg/cm^2) and with a spray volume of 0.5 mL. After drying in the shade, 10 3rd-instar larvae were inoculated for each treatment, and each treatment was repeated for 3 times. After the treatment, the leaf discs were placed into an observation chamber at 25° C. and with a relative humidity of 60% to 70%, and the number of living larvae was investigated 3 days after the administration of the compounds, and the mortality rates were calculated.

[1] = test system: Franklinella occidentalis; assay: Insecticidal activity against Franklinella occidentalis nymphs, sprayed bean leaves; assay type: in vivo
Protocol: as §1, §2
Determination method: fresh bean leaves cultivated in a greenhouse were selected, a hand-held Airbrush sprayer was used to spray uniformly, each treatment was 1 mL, and after being air-dried naturally, the leaves were placed in a finger-shaped tube. Neat and healthy Franklinella occidentalis nymphs were introduced, there were 15 nymphs for each treatment, 3 replicates were set for the experiment, and water treatment was set as a blank control. After the treatment, the leaves were put into an indoor culture room for culture at 24° C., a relative humidity of 60-70%, and natural light. After 72 h, the number of live insects was investigated and the mortality rate was calculated.

[2] = 3 days after the administration, Diamondback moth
[3] = 0.156 mg/L, 3 days after the administration, Diamondback moth
[4] = 0.313 mg/L, 3 days after the administration, Diamondback moth

SMILES | mortality at 10 µg/mL (Diamondback moth; [2]) | mortality at 0.156 µg/mL (Diamondback moth; [3]) | mortality at 0.313 µg/mL (Diamondback moth; [4]) | Mortality rate (%, 3 days after the administration) 10 mg/L [1] | Mortality rate (%, 3 days after the administration) 100 mg/L [1] | mortality at 0.156 µg/mL (Diamondback moth) | mortality at 0.313 µg/mL (Diamondback moth)
C=CCN(C(=O)c1ccccc1)c1cccc(C(=O)Nc2c(C)cc(C(F)(C(F)(F)F)C(F)(F)F)cc2C)c1 [KC1, reference compound] | 0% | – | – | – | – | – | –
CN(C(=O)c1ccc(F)nc1)c1cccc(C(=O)Nc2c(Br)cc(C(F)(C(F)(F)F)C(F)(F)F)cc2C(F)(F)F)c1F [KC7, reference compound] | – | 56.7% | 100% | 53.33% | 80.00% | – | –
O=C(Nc1cccc(C(=O)Nc2c(I)cc(C(F)(C(F)(F)F)C(F)(F)F)cc2C(F)(F)F)c1F)c1ccc(F)nc1 [KC6, reference compound] | – | – | – | 57.78% | 77.78% | 46.7% | 90%
C=CCN(C(=O)c1ccccc1)c1cccc(C(=O)Nc2c(C)cc(C(F)(C(F)(F)F)C(F)(F)F)cc2C)c1F [KC9, reference compound] | 100% | – | – | – | – | – | –
CN(C(=O)c1ccc(F)cc1)c1cccc(C(=O)Nc2c(I)cc(C(F)(C(F)(F)F)C(F)(F)F)cc2C(F)(F)F)c1F [KC5, reference compound] | – | 73.3% | 100% | 28.89% | 51.11% | – | –
C#CCN(C(=O)c1ccccc1)c1cccc(C(=O)Nc2c(C)cc(C(F)(C(F)(F)F)C(F)(F)F)cc2C)c1F [KC10, reference compound] | 100% | – | – | – | – | – | –
C#CCN(C(=O)c1ccccc1)c1cccc(C(=O)Nc2c(C)cc(C(F)(C(F)(F)F)C(F)(F)F)cc2C)c1 [KC2, reference compound] | 0% | – | – | – | – | – | –
CN(C(=O)c1ccc(F)cc1)c1cccc(C(=O)Nc2c(Br)cc(C(F)(C(F)(F)F)C(F)(F)F)cc2C(F)(F)F)c1F [KC4, reference compound] | – | 60% | 100% | 40.00% | 62.22% | – | –
CN(C(=O)c1ccc(F)nc1)c1cccc(C(=O)Nc2c(I)cc(C(F)(C(F)(F)F)C(F)(F)F)cc2C(F)(F)F)c1F [KC8, reference compound] | – | 53.3% | 86.7% | 53.33% | 82.22% | – | –
CN(C(=O)c1ccccc1)c1cccc(C(=O)Nc2c(Br)cc(C(F)(C(F)(F)F)C(F)(F)F)cc2C(F)(F)F)c1F [KC3, broflanilide, reference compound] | – | – | – | 31.11% | 57.78% | 50% | 93.3%
